Calls of active or inactive are those of the source. No cut-off for these calls is given here. A value given as a limit tells only on which side of the number the result lay.

In experiment [1] the target is Voltage-dependent T-type calcium channel subunit alpha-1H (Homo sapiens) (UniProt O95180). Put plainly: Antagonist activity against T-type calcium channel subunit alpha-1H assessed as inactivation of channel current at 1 uM by cell based patch clamp assay. The format is functional.
In experiment [2] the target is Voltage-dependent L-type calcium channel subunit alpha-1C (Homo sapiens) (UniProt Q13936). The experiment is described as follows: Antagonist activity against L-type calcium channel subunit alpha-1C assessed as inactivation of channel current at 0.1 uM by cell based patch clamp assay.
Experiment [3] addresses Voltage-dependent T-type calcium channel subunit alpha-1H (Homo sapiens) (UniProt O95180). Put plainly: Antagonist activity against T-type calcium channel subunit alpha-1H assessed as inactivation of channel current at 0.3 uM by cell based patch clamp assay. The format is functional.
Experiment [4] has the same target. Put plainly: Antagonist activity against T-type calcium channel subunit alpha-1H assessed as inactivation of channel current at 0.03 uM by cell based patch clamp assay. The format is functional.
Experiment [5] has the same target. Put plainly: Antagonist activity against T-type calcium channel subunit alpha-1H assessed as inactivation of channel current at 0.1 uM by cell based patch clamp assay. The format is functional.
Experiment [6] deals with Voltage-dependent L-type calcium channel subunit alpha-1C (Homo sapiens) (UniProt Q13936). Put plainly: Antagonist activity against L-type calcium channel subunit alpha-1C assessed as inactivation of channel current at 3 uM by cell based patch clamp assay.
Experiment [7] has the same target. The experiment is described as follows: Antagonist activity against L-type calcium channel subunit alpha-1C assessed as inactivation of channel current at 0.3 uM by cell based patch clamp assay.
Experiment [8] has the same target. Put plainly: Antagonist activity against L-type calcium channel subunit alpha-1C assessed as inactivation of channel current at 10 uM by cell based patch clamp assay.
In experiment [9] the target is Voltage-dependent T-type calcium channel subunit alpha-1H (Homo sapiens) (UniProt O95180). The experiment is described as follows: Antagonist activity against T-type calcium channel subunit alpha-1H assessed as inactivation of channel current at 3 uM by cell based patch clamp assay. The format is functional.
The nature of experiment [10]: Selectivity for T-type calcium channel subunit alpha-1H over L-type calcium channel subunit alpha-1C.

Sequence of Voltage-dependent T-type calcium channel subunit alpha-1H (Homo sapiens) (O95180 whole entry): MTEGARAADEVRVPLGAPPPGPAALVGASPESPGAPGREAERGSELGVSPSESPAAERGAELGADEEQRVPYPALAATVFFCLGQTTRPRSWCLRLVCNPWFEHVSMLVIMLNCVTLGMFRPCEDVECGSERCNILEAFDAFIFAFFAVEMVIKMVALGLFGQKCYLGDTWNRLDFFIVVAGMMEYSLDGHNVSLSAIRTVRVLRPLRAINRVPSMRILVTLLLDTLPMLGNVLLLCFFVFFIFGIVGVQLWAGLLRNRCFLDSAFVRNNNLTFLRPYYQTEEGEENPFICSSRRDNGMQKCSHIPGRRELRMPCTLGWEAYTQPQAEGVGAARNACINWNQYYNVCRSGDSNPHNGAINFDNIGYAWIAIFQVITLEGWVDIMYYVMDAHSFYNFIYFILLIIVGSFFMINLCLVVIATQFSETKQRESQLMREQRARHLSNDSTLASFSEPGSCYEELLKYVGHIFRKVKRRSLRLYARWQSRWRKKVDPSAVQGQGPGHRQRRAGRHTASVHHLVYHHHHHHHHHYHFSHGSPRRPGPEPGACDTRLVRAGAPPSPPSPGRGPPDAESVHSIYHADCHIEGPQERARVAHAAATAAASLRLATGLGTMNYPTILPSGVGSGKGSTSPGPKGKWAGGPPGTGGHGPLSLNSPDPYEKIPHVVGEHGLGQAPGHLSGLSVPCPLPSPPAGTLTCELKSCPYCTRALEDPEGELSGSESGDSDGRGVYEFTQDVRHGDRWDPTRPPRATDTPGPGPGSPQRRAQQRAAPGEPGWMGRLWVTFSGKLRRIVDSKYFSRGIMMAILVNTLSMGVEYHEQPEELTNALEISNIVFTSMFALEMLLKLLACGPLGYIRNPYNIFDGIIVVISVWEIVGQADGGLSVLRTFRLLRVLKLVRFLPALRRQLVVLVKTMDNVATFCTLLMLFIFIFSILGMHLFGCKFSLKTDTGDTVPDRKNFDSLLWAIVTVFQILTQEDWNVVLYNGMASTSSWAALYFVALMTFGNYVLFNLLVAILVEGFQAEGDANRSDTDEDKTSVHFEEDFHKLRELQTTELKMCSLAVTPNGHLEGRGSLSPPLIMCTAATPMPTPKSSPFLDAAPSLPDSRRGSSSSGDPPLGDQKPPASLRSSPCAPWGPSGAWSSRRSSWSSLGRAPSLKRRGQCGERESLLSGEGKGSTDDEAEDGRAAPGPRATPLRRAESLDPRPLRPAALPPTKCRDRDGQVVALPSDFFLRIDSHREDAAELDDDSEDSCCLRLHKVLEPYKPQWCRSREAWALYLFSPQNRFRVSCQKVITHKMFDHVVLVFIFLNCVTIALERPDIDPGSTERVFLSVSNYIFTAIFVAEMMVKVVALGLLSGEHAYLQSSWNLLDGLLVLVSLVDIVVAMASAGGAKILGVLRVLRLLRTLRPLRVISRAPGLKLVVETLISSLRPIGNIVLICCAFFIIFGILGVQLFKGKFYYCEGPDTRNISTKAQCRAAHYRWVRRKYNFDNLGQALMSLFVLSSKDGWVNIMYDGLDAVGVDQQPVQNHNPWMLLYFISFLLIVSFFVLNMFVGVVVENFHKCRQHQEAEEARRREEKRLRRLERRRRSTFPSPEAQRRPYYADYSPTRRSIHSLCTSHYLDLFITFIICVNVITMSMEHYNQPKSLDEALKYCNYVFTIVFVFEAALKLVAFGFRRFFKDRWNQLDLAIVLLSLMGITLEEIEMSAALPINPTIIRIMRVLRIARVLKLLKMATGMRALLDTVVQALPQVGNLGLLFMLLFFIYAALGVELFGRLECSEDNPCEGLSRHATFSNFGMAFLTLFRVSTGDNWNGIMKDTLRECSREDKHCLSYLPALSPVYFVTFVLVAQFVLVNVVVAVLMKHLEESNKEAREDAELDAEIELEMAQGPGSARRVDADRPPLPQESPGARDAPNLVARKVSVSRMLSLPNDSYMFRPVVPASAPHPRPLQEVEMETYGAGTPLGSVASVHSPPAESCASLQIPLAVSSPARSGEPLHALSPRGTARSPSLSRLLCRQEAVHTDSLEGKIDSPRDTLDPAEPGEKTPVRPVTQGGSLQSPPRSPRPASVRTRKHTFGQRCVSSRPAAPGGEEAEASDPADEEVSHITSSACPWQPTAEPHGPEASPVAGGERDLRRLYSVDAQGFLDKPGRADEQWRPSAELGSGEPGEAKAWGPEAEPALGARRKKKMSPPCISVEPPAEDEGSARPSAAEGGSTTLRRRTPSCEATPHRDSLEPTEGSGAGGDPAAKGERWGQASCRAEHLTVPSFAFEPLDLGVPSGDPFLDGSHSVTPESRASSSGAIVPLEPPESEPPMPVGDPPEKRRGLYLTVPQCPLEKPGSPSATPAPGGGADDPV
Sequence of Voltage-dependent L-type calcium channel subunit alpha-1C (Homo sapiens) (Q13936 whole entry, looked up): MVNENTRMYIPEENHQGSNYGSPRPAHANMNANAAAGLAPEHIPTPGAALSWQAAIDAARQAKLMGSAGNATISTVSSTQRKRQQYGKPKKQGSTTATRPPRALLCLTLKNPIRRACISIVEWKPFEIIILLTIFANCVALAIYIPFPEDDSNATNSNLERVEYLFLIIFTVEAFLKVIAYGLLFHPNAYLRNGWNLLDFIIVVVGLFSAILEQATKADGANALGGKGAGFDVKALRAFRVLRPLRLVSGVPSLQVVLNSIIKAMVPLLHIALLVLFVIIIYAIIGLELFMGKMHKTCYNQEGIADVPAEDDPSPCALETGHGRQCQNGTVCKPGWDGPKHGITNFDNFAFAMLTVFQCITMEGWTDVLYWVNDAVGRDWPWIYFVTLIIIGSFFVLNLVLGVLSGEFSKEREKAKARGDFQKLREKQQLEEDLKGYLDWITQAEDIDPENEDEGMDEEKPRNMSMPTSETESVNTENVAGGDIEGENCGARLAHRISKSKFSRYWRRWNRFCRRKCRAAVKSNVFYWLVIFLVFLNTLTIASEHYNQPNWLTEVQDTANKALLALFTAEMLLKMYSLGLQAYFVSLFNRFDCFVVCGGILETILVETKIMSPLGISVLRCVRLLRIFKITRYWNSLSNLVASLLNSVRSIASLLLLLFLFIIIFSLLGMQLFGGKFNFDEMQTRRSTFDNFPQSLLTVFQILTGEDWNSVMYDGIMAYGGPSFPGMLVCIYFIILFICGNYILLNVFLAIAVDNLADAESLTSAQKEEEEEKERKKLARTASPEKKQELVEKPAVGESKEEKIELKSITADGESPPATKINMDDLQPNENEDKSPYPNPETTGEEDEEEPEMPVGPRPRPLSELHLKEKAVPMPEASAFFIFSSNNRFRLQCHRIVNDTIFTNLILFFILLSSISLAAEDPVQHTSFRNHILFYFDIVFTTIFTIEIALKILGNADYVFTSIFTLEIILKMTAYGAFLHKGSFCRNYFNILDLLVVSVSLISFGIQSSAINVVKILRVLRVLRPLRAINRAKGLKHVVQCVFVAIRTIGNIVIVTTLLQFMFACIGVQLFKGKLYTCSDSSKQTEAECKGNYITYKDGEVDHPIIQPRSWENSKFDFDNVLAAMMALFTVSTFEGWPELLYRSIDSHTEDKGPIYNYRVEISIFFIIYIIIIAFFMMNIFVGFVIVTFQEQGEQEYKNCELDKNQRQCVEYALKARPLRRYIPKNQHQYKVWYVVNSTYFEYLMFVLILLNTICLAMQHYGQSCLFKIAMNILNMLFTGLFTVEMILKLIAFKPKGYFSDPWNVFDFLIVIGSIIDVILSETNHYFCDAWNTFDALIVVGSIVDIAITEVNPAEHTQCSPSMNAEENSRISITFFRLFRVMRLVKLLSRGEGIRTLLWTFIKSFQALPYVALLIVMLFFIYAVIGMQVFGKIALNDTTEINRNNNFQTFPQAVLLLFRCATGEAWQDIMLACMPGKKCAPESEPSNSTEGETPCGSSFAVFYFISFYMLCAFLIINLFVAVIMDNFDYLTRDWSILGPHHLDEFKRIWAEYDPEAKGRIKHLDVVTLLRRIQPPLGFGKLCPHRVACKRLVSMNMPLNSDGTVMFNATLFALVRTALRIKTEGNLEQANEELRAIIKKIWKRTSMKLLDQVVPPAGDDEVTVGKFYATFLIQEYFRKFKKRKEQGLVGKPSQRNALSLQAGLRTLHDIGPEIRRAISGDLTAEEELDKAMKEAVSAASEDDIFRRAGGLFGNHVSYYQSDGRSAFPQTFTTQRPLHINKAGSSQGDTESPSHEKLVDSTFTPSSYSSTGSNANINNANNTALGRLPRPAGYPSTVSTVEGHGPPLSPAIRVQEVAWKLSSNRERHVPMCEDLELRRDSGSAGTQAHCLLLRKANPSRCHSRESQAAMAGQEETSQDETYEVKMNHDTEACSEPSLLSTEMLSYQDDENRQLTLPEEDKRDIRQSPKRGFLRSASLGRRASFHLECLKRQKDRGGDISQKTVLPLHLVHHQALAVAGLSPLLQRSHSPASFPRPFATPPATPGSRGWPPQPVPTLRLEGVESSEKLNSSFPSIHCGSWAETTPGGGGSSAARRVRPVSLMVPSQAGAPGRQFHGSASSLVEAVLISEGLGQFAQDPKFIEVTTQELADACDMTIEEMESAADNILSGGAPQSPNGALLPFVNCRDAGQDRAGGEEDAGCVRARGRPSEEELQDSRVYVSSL

For `O=C1CC2(CCN(C(c3ccc(F)cc3)c3ccc(F)cc3)CC2)CN1Cc1ccc(Cl)cc1`, the inhibition in experiment [1] came to 68%; in experiment [2] it was 42%. Consider `CC(C)C(C(C)C)N1CCC2(CCN(Cc3ccc(Cl)cc3)C2=O)CC1`, for which the inhibition in experiment [3] is 40%. As for `Fc1ccc(C(c2ccc(F)cc2)N2CCC3(CCN(Cc4ccc(Cl)cc4)C3)CC2)cc1`, the inhibition in [1] is 66%. Take `O=C(c1ccc(F)cc1)N1CCC2(CC1)CCN(Cc1ccc(Cl)cc1)C2=O`: in [1], the inhibition is less than 20%.

With `O=C1N(CCc2ccc(Cl)cc2)CCC12CCN(C(c1ccc(F)cc1)c1ccc(F)cc1)CC2`, in experiment [4], the inhibition turned out to be 30%.

`O=C1N(Cc2ccc(Cl)cc2)CCC12CCN(CC(c1ccc(F)cc1)c1ccc(F)cc1)CC2`: in experiment [5], the inhibition stood at 59%. Consider `CC(C)OCCCN1CCC2(CCN(C(c3ccc(F)cc3)c3ccc(F)cc3)CC2)C1=O`, for which the inhibition was 76% in experiment [1] and 56% in experiment [6].

As to `O=C1N(Cc2cccc(Cl)c2)CCC12CCN(C(c1ccc(F)cc1)c1ccc(F)cc1)CC2`, the inhibition in experiment [4] is less than 20%; in [3], 91%. For the compound `CC(C)(C)CCN1CCC2(CCN(C(c3ccc(F)cc3)c3ccc(F)cc3)CC2)C1=O`, the inhibition amounted to 60% in experiment [7] and 44% in experiment [3].

With `COCCCN1CCC2(CCN(C(c3ccc(F)cc3)c3ccc(F)cc3)CC2)C1=O`, the inhibition in experiment [1] was 44%; in experiment [8], 58%. Consider `O=C1N(Cc2ccc(Cl)cc2)CCC12CCNCC2`, for which the inhibition in experiment [9] is less than 20%.

Turning to `O=C1N(CCCN2CCOCC2)CCC12CCN(C(c1ccc(F)cc1)c1ccc(F)cc1)CC2`, the inhibition in experiment [1] came out at 35%. For `O=C1N(Cc2ccc(Cl)cc2)CCC12CCN(Cc1ccc(F)cc1)CC2`, the inhibition in experiment [6] is 59%; in [9] it was 65%. On to `COCCN1CCC2(CCN(C(c3ccc(F)cc3)c3ccc(F)cc3)CC2)C1=O`, for which, in experiment [1], the inhibition was 28%. Take `COc1cccc(CN2CCC3(CCN(C(c4ccc(F)cc4)c4ccc(F)cc4)CC3)C2=O)c1`: the Ratio IC50 in experiment [10] amounted to 8. Further, the inhibition turned out to be 67% in experiment [7] and 52% in experiment [4]. Regarding `O=C1N(Cc2ccc(Cl)cc2)CCC12CCN(Cc1cccc(Oc3ccccc3)c1)CC2`, the inhibition in experiment [3] turned out to be 56%. Regarding `O=C1N(Cc2ccc(Cl)cc2)CCC12CCN(C(c1ccc(F)cc1)c1ccc(F)cc1)CC2`, the Ratio IC50 in experiment [10] was found to be 10. For the same compound, the figures for the inhibition in experiment [4] and in [2] were 58% and 31%, respectively. Consider `O=C1N(Cc2ccc(Cl)cc2)CCC12CCN(S(=O)(=O)c1ccc(F)cc1)CC2`, for which the figures for the inhibition in experiment [6] and in experiment [9] were 54% and 45%, respectively. For `O=C(c1ccc(Cl)cc1)N1CCC2(CCN(C(c3ccc(F)cc3)c3ccc(F)cc3)CC2)C1`, the inhibition was found to be 59% in [3] and 44% in [2].

With `CCOc1ccccc1CN1CCC2(CC1)CCN(Cc1ccc(Cl)cc1)C2=O`, in experiment [9], the inhibition was found to be 67%. `CC(C)N1CCC2(CCN(C(c3ccc(F)cc3)c3ccc(F)cc3)CC2)C1=O`: the inhibition in experiment [6] was determined as 52%; in experiment [9] it was 57%.

Take `O=C1NCCC12CCN(C(c1ccc(F)cc1)c1ccc(F)cc1)CC2`: the inhibition result in experiment [1] was “inactive”. Further, in experiment [9], the inhibition is less than 20%.

(Values after ChEMBL document CHEMBL1268989, “Design, syntheses, and SAR of 2,8-diazaspiro[4.5]decanones as T-type calcium channel antagonists” (Bioorg Med Chem Lett, 2010).)
